Measured values: patent US6737383B1, “Herbicidal oxadiazolidines” (priority 1999, dated 2004)

Experiments:
velvetleaf = test: Test B pre/postemergence velvetleaf; assay type: in vivo, Abutilon theophrasti
Procedure, shortened: (§1)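 Herbicidal effect was estimated by eye on a ten-point control scale after plants spent twelve to sixteen days in a greenhouse following soil or foliar treatment. Foliar sprays targeted plants at one to four leaves; all doses were formulated in a non-phytotoxic solvent with surfactant.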

blackgrass = test: Test B pre/postemergence blackgrass; assay type: in vivo, Alopecurus myosuroides
Procedure, shortened: as §1

corn = test: Test B pre/postemergence corn; assay type: in vivo, Zea mays
Procedure, shortened: as §1

bedstraw = test: Test B pre/postemergence bedstraw; assay type: in vivo, Galium aparine; settings: Postemergence
Procedure, shortened: as §1

giant foxtail = test: Test B pre/postemergence giant foxtail; assay type: in vivo, Setaria faberii
Procedure, shortened: as §1

bamyardgrass = test: Test B flood test barnyardgrass; assay type: in vivo, Echinochloa crus-galli
Procedure, shortened: (§2)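 Flood test on plants grown to the 2-leaf stage; treated plants kept in greenhouse twelve to sixteen days, then visually rated against controls on a 0 (no effect) to 10 (complete control) scale.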

crabgrass = test: Test B pre/postemergence crabgrass; assay type: in vivo, Digitaria sanguinalis
Procedure, shortened: as §1

smallflower flatsedge = test: Test B flood test smallflower flatsedge; assay type: in vivo, Cyperus difformis
Procedure, shortened: as §2

rice = test: Test B flood test rice; assay type: in vivo, Oryza sativa
Procedure, shortened: as §2

wild oat = test: Test B pre/postemergence wild oat; assay type: in vivo, Avena fatua
Procedure, shortened: as §1

morningglory = test: Test B pre/postemergence morningglory; assay type: in vivo, Ipomoea hederacea
Procedure, shortened: as §1

purple nutsedge = test: Test B pre/postemergence purple nutsedge; assay type: in vivo, Cyperus rotundus
Procedure, shortened: as §1

wheat = test: Test B pre/postemergence wheat; assay type: in vivo, Triticum aestivum
Procedure, shortened: as §1

duck salad = test: Test B flood test duck salad; assay type: in vivo, Heteranthera limosa
Procedure, shortened: as §2

soybean = test: Test B pre/postemergence soybean; assay type: in vivo, Glycine max
Procedure, shortened: as §1

cocklebur = test: Test B pre/postemergence cocklebur; assay type: in vivo, Xanthium strumarium
Procedure, shortened: as §1

surinam grass = test: Test B pre/postemergence surinam grass; assay type: in vivo, Brachiaria decumbens
Procedure, shortened: as §1

[1] = Postemergence, Rate 62 g/ha, scale 0 to 10, 0 is no effect, 10 is complete control
[2] = Postemergence, Rate 125 g/ha, scale of 0 to 10 where 0 is no effect and 10 is complete control
[3] = Postemergence, Rate 250 g/ha, scale of 0 to 10, 0 is no effect, 10 is complete control
[4] = Preemergence, Rate 62 g/ha, scale 0 to 10 (0 no effect, 10 complete control)
[5] = Preemergence, Rate 125 g/ha, scale of 0 to 10 where 0 is no effect and 10 is complete control
[6] = Preemergence, Rate 250 g/ha, scale 0 to 10 (0 no effect, 10 complete control)
[7] = Preemergence, Rate 500 g/ha, scale of 0 to 10 where 0 is no effect and 10 is complete control
[8] = Postemergence, Rate 500 g/ha, scale of 0 to 10 where 0 is no effect and 10 is complete control
[9] = Rate 62 g/ha, flood test species, Pre-emergence, visual evaluation after twelve to sixteen days
[10] = Rate 125 g/ha, under heading Pre-emergence, flood test species, visual evaluation after twelve to sixteen days
[11] = Rate 250 g/ha, Pre-emergence (flood test species), scale 0 to 10, 0 is no effect, 10 is complete control
[12] = Rate 500 g/ha, Pre-emergence section of Table B, 0 to 10 scale (0 no effect, 10 complete control)

## CCOC(Cn1c(=O)on(C(=O)N(c2ccccc2)C(C)C)c1=O)OCC [Compound 632]
velvetleaf; [1]
  Plant response rating, Velvetleaf: 0
velvetleaf; [2]
  Plant response rating, Velvetleaf: 0
velvetleaf; [3]
  Velvetleaf plant response rating: 0
velvetleaf; [4]
  Velvetleaf plant response rating: 0
velvetleaf; [5]
  Velvetleaf plant response rating: 1
velvetleaf; [6]
  Plant response rating, Velvetleaf: 6
velvetleaf; [7]
  Plant response rating, Velvetleaf: 7
blackgrass; [1]
  Plant response rating, Blackgrass: 0
blackgrass; [2]
  Plant response rating, Blackgrass: 4
blackgrass; [3]
  Blackgrass plant response rating: 6
blackgrass; [8]
  Plant response rating, Blackgrass: 8
blackgrass; [4]
  Blackgrass plant response rating: 2
blackgrass; [5]
  Blackgrass plant response rating: 4
blackgrass; [6]
  Plant response rating, Blackgrass: 7
blackgrass; [7]
  Plant response rating, Blackgrass: 10
corn; [1]
  Plant response rating, Corn: 0
corn; [2]
  Plant response rating, Corn: 3
corn; [3]
  Corn plant response rating: 3
corn; [8]
  Plant response rating, Corn: 5
corn; [4]
  Corn plant response rating: 0
corn; [5]
  Corn plant response rating: 4
corn; [6]
  Plant response rating, Corn: 4
corn; [7]
  Plant response rating, Corn: 5
bedstraw; Rate 62 g/ha, scale 0 to 10, 0 is no effect, 10 is complete control
  Plant response rating, Bedstraw: 0
bedstraw; Rate 125 g/ha, scale of 0 to 10 where 0 is no effect and 10 is complete control
  Plant response rating, Bedstraw: 0
bedstraw; Rate 250 g/ha, scale of 0 to 10, 0 is no effect, 10 is complete control
  Bedstraw plant response rating: 0
Giant foxtail; [1]
  Plant response rating, Giant foxtail: 3
Giant foxtail; [2]
  Plant response rating, Giant foxtail: 7
Giant foxtail; [3]
  Giant foxtail plant response rating: 8
Giant foxtail; [8]
  Plant response rating, Giant foxtail: 9
Giant foxtail; [4]
  Giant foxtail plant response rating: 8
Giant foxtail; [5]
  Giant foxtail plant response rating: 10
Giant foxtail; [6]
  Plant response rating, Giant foxtail: 10
Giant foxtail; [7]
  Plant response rating, Giant foxtail: 10
bamyardgrass; [9]
  Plant response rating, Barnyardgrass (0 to 10 scale, 0 is no effect, 10 is complete control): 0
bamyardgrass; [10]
  Barnyardgrass plant response rating (0 to 10 scale, 0 is no effect, 10 is complete control): 0
bamyardgrass; [11]
  Barnyardgrass plant response rating: 0
bamyardgrass; [12]
  Barnyardgrass plant response rating: 0
crabgrass; [1]
  Plant response rating, Crabgrass: 0
crabgrass; [2]
  Plant response rating, Crabgrass: 6
crabgrass; [3]
  Crabgrass plant response rating: 8
crabgrass; [4]
  Crabgrass plant response rating: 2
crabgrass; [5]
  Crabgrass plant response rating: 7
crabgrass; [6]
  Plant response rating, Crabgrass: 8
crabgrass; [7]
  Plant response rating, Crabgrass: 9
Smallflower flatsedge; [9]
  Plant response rating, S. Flatsedge (0 to 10 scale, 0 is no effect, 10 is complete control): 0
Smallflower flatsedge; [10]
  S. Flatsedge plant response rating (0 to 10 scale, 0 is no effect, 10 is complete control): 0
Smallflower flatsedge; [11]
  S. Flatsedge plant response rating: 0
Smallflower flatsedge; [12]
  S. Flatsedge plant response rating: 0
rice; [9]
  Plant response rating, Rice (0 to 10 scale, 0 is no effect, 10 is complete control): 0
rice; [10]
  Rice plant response rating (0 to 10 scale, 0 is no effect, 10 is complete control): 0
rice; [11]
  Rice plant response rating: 0
rice; [12]
  Rice plant response rating: 0
Wild oat; [1]
  Plant response rating, Wild oats: 0
Wild oat; [2]
  Plant response rating, Wild oats: 0
Wild oat; [3]
  Wild oats plant response rating: 0
Wild oat; [4]
  Wild oats plant response rating: 0
Wild oat; [5]
  Wild oats plant response rating: 2
Wild oat; [6]
  Plant response rating, Wild oats: 3
Wild oat; [7]
  Plant response rating, Wild oats: 3
morningglory; [1]
  Plant response rating, Morningglory: 1
morningglory; [2]
  Plant response rating, Morningglory: 1
morningglory; [3]
  Morningglory plant response rating: 2
morningglory; [8]
  Plant response rating, Morningglory: 10
morningglory; [4]
  Morningglory plant response rating: 0
morningglory; [5]
  Morningglory plant response rating: 0
morningglory; [6]
  Plant response rating, Morningglory: 4
morningglory; [7]
  Plant response rating, Morningglory: 5
Purple nutsedge; [1]
  Plant response rating, Nutsedge: 0
Purple nutsedge; [2]
  Plant response rating, Nutsedge: 0
Purple nutsedge; [3]
  Nutsedge plant response rating: 0
Purple nutsedge; [4]
  Nutsedge plant response rating: 0
Purple nutsedge; [5]
  Nutsedge plant response rating: 0
Purple nutsedge; [6]
  Plant response rating, Nutsedge: 0
Purple nutsedge; [7]
  Plant response rating, Nutsedge: 0
wheat; [1]
  Plant response rating, Wheat: 0
wheat; [2]
  Plant response rating, Wheat: 0
wheat; [3]
  Wheat plant response rating: 0
wheat; [4]
  Wheat plant response rating: 0
wheat; [5]
  Wheat plant response rating: 0
wheat; [6]
  Plant response rating, Wheat: 0
wheat; [7]
  Plant response rating, Wheat: 0
Duck salad; [9]
  Plant response rating, Ducksalad (0 to 10 scale, 0 is no effect, 10 is complete control): 0
Duck salad; [10]
  Ducksalad plant response rating (0 to 10 scale, 0 is no effect, 10 is complete control): 0
Duck salad; [11]
  Ducksalad plant response rating: 0
Duck salad; [12]
  Ducksalad plant response rating: 0
soybean; [1]
  Plant response rating, Soybean: 1
soybean; [2]
  Plant response rating, Soybean: 2
soybean; [3]
  Soybean plant response rating: 4
soybean; [4]
  Soybean plant response rating: 0
soybean; [5]
  Soybean plant response rating: 0
soybean; [6]
  Plant response rating, Soybean: 0
soybean; [7]
  Plant response rating, Soybean: 0
cocklebur; [1]
  Plant response rating, Cocklebur: 0
cocklebur; [2]
  Plant response rating, Cocklebur: 0
cocklebur; [3]
  Cocklebur plant response rating: 0
cocklebur; [8]
  Plant response rating, Cocklebur: 0
cocklebur; [4]
  Cocklebur plant response rating: 0
cocklebur; [5]
  Cocklebur plant response rating: 0
cocklebur; [6]
  Plant response rating, Cocklebur: 0
cocklebur; [7]
  Plant response rating, Cocklebur: 0
Surinam grass; [1]
  Plant response rating, B. signalgrass: 0
Surinam grass; [2]
  Plant response rating, B. signalgrass: 0
Surinam grass; [3]
  B. signalgrass plant response rating: 2
Surinam grass; [8]
  Plant response rating, B. signalgrass: 6
Surinam grass; [4]
  B. signalgrass plant response rating: 0
Surinam grass; [5]
  B. signalgrass plant response rating: 3
Surinam grass; [6]
  Plant response rating, B. signalgrass: 6
Surinam grass; [7]
  Plant response rating, B. signalgrass: 10
